SMILES strings stand for the structures. Starred links: 1 amine or outer side, 2 acyl side, 3 side chain; linkers in the order of their positions; H or OH if unused. Positions of bridges follow the written chain, without caps; N, C: chain ends. Non-standard residues stand in square brackets, D forms with d. Residues, ends and D or L forms follow the SMILES beside them. *: point of attachment. Bip(4'-(3-HOOC-benzamido)) = N[C@@H](Cc1ccc(-c2ccc(NC(=O)c3cccc(C(=O)O)c3)cc2)cc1)C(=O)O; Bip(4'-NHBz) = N[C@@H](Cc1ccc(-c2ccc(NC(=O)c3ccccc3)cc2)cc1)C(=O)O; Bip(4'-NH) = O=C([C@H](Cc1ccc(-c2ccc(N[*:3])cc2)cc1)N[*:1])[*:2]; X14 = O=C([C@H](Cc1ccc(-c2cccc(C(=O)[*:3])c2)cc1)N[*:1])[*:2]; Bip(4'-COOH) = N[C@@H](Cc1ccc(-c2ccc(C(=O)O)cc2)cc1)C(=O)O; Bip(4'-NHAc) = CC(=O)Nc1ccc(-c2ccc(C[C@H](N)C(=O)O)cc2)cc1; Ala(morpholin-4-yl) = N[C@@H](CN1CCOCC1)C(=O)O; Benzoyl(3-OCH2COOH) = O=C(O)COc1cccc(C(=O)*)c1; Phe(3-CONH2) = NC(=O)c1cccc(C[C@H](N)C(=O)O)c1; Benzoyl(4-Ph) = O=C(c1ccc(-c2ccccc2)cc1)*; Bip = N[C@@H](Cc1ccc(-c2ccccc2)cc1)C(=O)O; X15 = O=C(O)c1cccc(Oc2ccccc2N*)c1; Cya = N[C@@H](CS(=O)(=O)O)C(=O)O; 2Thi = N[C@@H](Cc1cccs1)C(=O)O; Cha = N[C@@H](CC1CCCCC1)C(=O)O; Chg = N[C@H](C(=O)O)C1CCCCC1; Sar = CNCC(=O)O

Drawing on patent US20250145665A1, “MACROCYCLIC PEPTIDES USEFUL AS MODULATORS OF TNF ALPHA” (Bristol-Myers Squibb Company, priority 2023, published 2025), this text covers IC50 for eleven compounds.

The target in one test is TNFα (Homo sapiens, UniProt P01375). The experiment in a line: TNF-Induced HEK-Blue Assay. The class given is cell-based.
Sequence of TNFα (P01375 77-233 limits assumed): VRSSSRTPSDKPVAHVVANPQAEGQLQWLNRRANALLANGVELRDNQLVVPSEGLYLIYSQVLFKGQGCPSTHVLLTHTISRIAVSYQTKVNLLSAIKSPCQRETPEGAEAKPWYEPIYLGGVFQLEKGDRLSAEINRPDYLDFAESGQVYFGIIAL
Conditions: not given
With `CC[C@H](C)[C@@H]1NC(=O)[C@@H](CCCNC(=N)N)NC(=O)[C@H](CC(=O)O)NC(=O)[C@H](Cc2cnc[nH]2)NC(=O)CN(C)C(=O)[C@H](Cc2ccc(-c3ccc(NC(=O)c4ccccc4)cc3)cc2)NC(=O)[C@H](Cc2ccc(-c3ccccc3)cc2)NC(=O)[C@H](CC2CCCCC2)NC(=O)CSC[C@@H](C(=O)NCC(N)=O)NC(=O)[C@H](CC(C)C)NC(=O)[C@H](Cc2cnc[nH]2)NC(=O)[C@H](C(C)C)NC(=O)[C@@H]2CCCN2C1=O` [Example 315] ({CH2CO}-[Cha][Bip][Bip(4'-NHBz)][Sar]HD[dR]IPVHLCG-NH2; thioether N-13), the IC50 is < 50 nM.

The same test, now with this note: HEK-Blue-CD40L cells, NF-kB-driven secreted alkaline phosphatase reporter; TNFα 0.5 ng/ml; 18 h; read-out: TNF induced HEK-Blue assay IC50 value.
On to `CC[C@H](C)[C@@H]1NC(=O)[C@@H](CCCNC(=N)N)NC(=O)[C@H](CC(=O)O)NC(=O)[C@H](Cc2cnc[nH]2)NC(=O)CN(C)C(=O)[C@H](Cc2ccc(-c3ccc(NC(=O)c4cccc(C(=O)O)c4)cc3)cc2)NC(=O)[C@H](Cc2ccc(-c3ccccc3)cc2)NC(=O)[C@H](CC2CCCCC2)NC(=O)CSC[C@@H](C(=O)NCC(N)=O)NC(=O)[C@H](CC(C)C)NC(=O)[C@H](Cc2cnc[nH]2)NC(=O)[C@H](C(C)C)NC(=O)[C@@H]2CCCN2C1=O` [Example 305] ({CH2CO}-[Cha][Bip][Bip(4'-(3-HOOC-benzamido))][Sar]HD[dR]IPVHLCG-NH2; thioether N-13), for which the half-maximal inhibitory concentration (IC50) is < 50 nM.

As to `CC(C)C[C@@H]1NC(=O)[C@H](CCCNC(=N)N)NC(=O)[C@H](C(C)C)NC(=O)[C@@H]2CCCN2C(=O)[C@H](C(C)C)NC(=O)[C@@H](CCCNC(=N)N)NC(=O)[C@H](CC(=O)O)NC(=O)[C@@H]2CCCN2C(=O)CN(C)C(=O)[C@H](Cc2ccc(-c3cccc(C(=O)Nc4ccccc4Oc4cccc(C(=O)O)c4)c3)cc2)NC(=O)[C@H](Cc2ccc(-c3ccccc3)cc2)NC(=O)[C@H](CN2CCOCC2)NC(=O)CSC[C@@H](C(=O)NCC(N)=O)NC1=O` [Example 306] ({CH2CO}-[Ala(morpholin-4-yl)][Bip][X14](X15)[Sar]PD[dR]VPVRLCG-NH2; thioether N-13), the 50% inhibitory concentration (IC50) lay in the range of 50 to 200 nM. On the same count and under the same terms, the figure for `CC[C@H](C)[C@@H]1NC(=O)[C@@H](CCCNC(=N)N)NC(=O)[C@H](CC(=O)O)NC(=O)[C@H](Cc2cnc[nH]2)NC(=O)CN(C)C(=O)[C@H](Cc2ccc(-c3ccc(NC(=O)c4ccc(-c5ccccc5)cc4)cc3)cc2)NC(=O)[C@H](Cc2ccc(-c3ccccc3)cc2)NC(=O)[C@H](CC2CCCCC2)NC(=O)CSC[C@@H](C(=O)NCC(N)=O)NC(=O)[C@H](CC(C)C)NC(=O)[C@H](Cc2cnc[nH]2)NC(=O)[C@H](C(C)C)NC(=O)[C@@H]2CCCN2C1=O` [Example 307] ({CH2CO}-[Cha][Bip][Bip(4'-NH)](Benzoyl(4-Ph))[Sar]HD[dR]IPVHLCG-NH2; thioether N-13) is 50 to 200 nM; for `CC[C@H](C)[C@@H]1NC(=O)[C@@H](CCCNC(=N)N)NC(=O)[C@H](CC(=O)O)NC(=O)[C@H](Cc2cnc[nH]2)NC(=O)CN(C)C(=O)[C@H](Cc2ccc(-c3ccc(NC(=O)c4cccc(OCC(=O)O)c4)cc3)cc2)NC(=O)[C@H](Cc2ccc(-c3ccccc3)cc2)NC(=O)[C@H](CC2CCCCC2)NC(=O)CSC[C@@H](C(=O)NCC(N)=O)NC(=O)[C@H](CC(C)C)NC(=O)[C@H](Cc2cnc[nH]2)NC(=O)[C@H](C(C)C)NC(=O)[C@@H]2CCCN2C1=O` [Example 308] ({CH2CO}-[Cha][Bip][Bip(4'-NH)](Benzoyl(3-OCH2COOH))[Sar]HD[dR]IPVHLCG-NH2; thioether N-13) it is < 50 nM. On the same count and under the same terms, the figure for `CC(=O)Nc1ccc(-c2ccc(C[C@@H]3NC(=O)[C@H](Cc4ccc(-c5ccccc5)cc4)NC(=O)[C@H](CC4CCCCC4)NC(=O)CSC[C@@H](C(=O)NCC(N)=O)NC(=O)[C@H](CC(C)C)NC(=O)[C@H](Cc4ccc(O)cc4)NC(=O)[C@H](C(C)C)NC(=O)[C@@H]4CCCN4C(=O)[C@H](C(C)C)NC(=O)[C@@H](CCCNC(=N)N)NC(=O)[C@H](CS(=O)(=O)O)NC(=O)[C@@H]4CCCN4C(=O)CN(C)C3=O)cc2)cc1` [Example 309] ({CH2CO}-[Cha][Bip][Bip(4'-NHAc)][Sar]P[Cya][dR]VPVYLCG-NH2; thioether N-13) is 50 to 200 nM. Consider `CC(=O)Nc1ccc(-c2ccc(C[C@@H]3NC(=O)[C@H](Cc4ccc(-c5ccccc5)cc4)NC(=O)[C@H](CC4CCCCC4)NC(=O)CSC[C@@H](C(=O)NCC(N)=O)NC(=O)[C@H](CC(C)C)NC(=O)[C@H](Cc4ccc(O)cc4)NC(=O)[C@H](C4CCCCC4)NC(=O)[C@@H]4CCCN4C(=O)[C@H](C(C)C)NC(=O)[C@@H](CCCNC(=N)N)NC(=O)[C@H](CC(=O)O)NC(=O)[C@@H]4CCCN4C(=O)CN(C)C3=O)cc2)cc1` [Example 310] ({CH2CO}-[Cha][Bip][Bip(4'-NHAc)][Sar]PD[dR]VP[Chg]YLCG-NH2; thioether N-13), for which the IC50 was in the range of 50 to 200 nM.

As for `CC(=O)Nc1ccc(-c2ccc(C[C@@H]3NC(=O)[C@H](Cc4ccc(-c5ccccc5)cc4)NC(=O)[C@H](CN4CCOCC4)NC(=O)CSC[C@@H](C(=O)NCC(N)=O)NC(=O)[C@H](CC(C)C)NC(=O)[C@H](Cc4cccc(C(N)=O)c4)NC(=O)[C@H](C(C)C)NC(=O)[C@@H]4CCCN4C(=O)[C@H](C(C)C)NC(=O)[C@@H](CCCNC(=N)N)NC(=O)[C@H](CC(=O)O)NC(=O)[C@@H]4CCCN4C(=O)CN(C)C3=O)cc2)cc1` [Example 311] ({CH2CO}-[Ala(morpholin-4-yl)][Bip][Bip(4'-NHAc)][Sar]PD[dR]VPV[Phe(3-CONH2)]LCG-NH2; thioether N-13), the IC50 is 50 to 200 nM. Still for that read-out and setting: the figure for `CC(=O)Nc1ccc(-c2ccc(C[C@@H]3NC(=O)[C@H](Cc4ccc(-c5ccccc5)cc4)NC(=O)[C@H](CN4CCOCC4)NC(=O)CSC[C@@H](C(=O)NCC(N)=O)NC(=O)[C@H](CC(C)C)NC(=O)[C@H](Cc4cccc(C(N)=O)c4)NC(=O)[C@H](C4CCCCC4)NC(=O)[C@@H]4CCCN4C(=O)[C@H](C(C)C)NC(=O)[C@@H](CCCNC(=N)N)NC(=O)[C@H](CC(=O)O)NC(=O)[C@@H]4CCCN4C(=O)CN(C)C3=O)cc2)cc1` [Example 312] ({CH2CO}-[Ala(morpholin-4-yl)][Bip][Bip(4'-NHAc)][Sar]PD[dR]VP[Chg][Phe(3-CONH2)]LCG-NH2; thioether N-13) is 200 to 2000 nM. Regarding `CC(=O)Nc1ccc(-c2ccc(C[C@@H]3NC(=O)[C@H](Cc4ccc(-c5ccc(C(=O)O)cc5)cc4)NC(=O)[C@H](CN4CCOCC4)NC(=O)CSC[C@@H](C(=O)NCC(N)=O)NC(=O)[C@H](CC(C)C)NC(=O)[C@H](Cc4cccc(C(N)=O)c4)NC(=O)[C@H](C(C)C)NC(=O)[C@@H]4CCCN4C(=O)[C@H](C(C)C)NC(=O)[C@@H](CCCNC(=N)N)NC(=O)[C@H](CC(=O)O)NC(=O)[C@@H]4CCCN4C(=O)CN(C)C3=O)cc2)cc1` [Example 313] ({CH2CO}-[Ala(morpholin-4-yl)][Bip(4'-COOH)][Bip(4'-NHAc)][Sar]PD[dR]VPV[Phe(3-CONH2)]LCG-NH2; thioether N-13), the IC50 is 200 to 2000 nM. The same measure, in the same setting: the figure for `CC(=O)Nc1ccc(-c2ccc(C[C@@H]3NC(=O)[C@H](Cc4ccc(-c5ccc(C(=O)O)cc5)cc4)NC(=O)[C@H](CN4CCOCC4)NC(=O)CSC[C@@H](C(=O)NCC(N)=O)NC(=O)[C@H](CC(C)C)NC(=O)[C@H](Cc4cccs4)NC(=O)[C@H](C4CCCCC4)NC(=O)[C@@H]4CCCN4C(=O)[C@H](C(C)C)NC(=O)[C@@H](CCCNC(=N)N)NC(=O)[C@H](CC(=O)O)NC(=O)[C@@H]4CCCN4C(=O)CN(C)C3=O)cc2)cc1` [Example 314] ({CH2CO}-[Ala(morpholin-4-yl)][Bip(4'-COOH)][Bip(4'-NHAc)][Sar]PD[dR]VP[Chg][2Thi]LCG-NH2; thioether N-13) is 200 to 2000 nM.

The term IC50 denotes the midpoint of a concentration-inhibition curve.
